Several values for one entry are separate records, joined by “and”; a condition that tells them apart may be missing. Equal entries are not always repeated.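 Protocol summary: plate cells (96-well), add compound at 5 concentrations, incubate 48 h, interpolate endpoints linearly. GI50 = concentration required for 50% inhibition of growth. TGI marks complete inhibition of growth.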
What was measured:
Assay in all cases: NCI tumour cell line growth inhibition, 48 h
[1] = tested on: MDA-MB-435
[2] = tested on: UACC-62 melanoma
[3] = tested on: BT-549 breast
[4] = tested on: XF 498 CNS
[5] = tested on: M14 melanoma
[6] = tested on: TK-10 renal
[7] = tested on: HOP-62 NSCLC
[8] = tested on: A549 NSCLC
[9] = tested on: HCT-15 colon
[10] = tested on: OVCAR-5 ovarian
[11] = tested on: K-562 leukemia
[12] = tested on: ACHN renal
[13] = tested on: SR leukemia
[14] = tested on: T-47D breast
[15] = tested on: 786-0 renal
[16] = tested on: SK-OV-3 ovarian
[17] = tested on: HOP-92 NSCLC
[18] = tested on: HL-60(TB) leukemia
[19] = tested on: SF-268 CNS
[20] = tested on: RXF 393 renal
[21] = tested on: SNB-75 CNS
[22] = tested on: SF-295 CNS
[23] = tested on: DMS 273 small cell lung
[24] = tested on: SK-MEL-2 melanoma
[25] = tested on: NCI-H226 lung
[26] = tested on: UO-31 renal
[27] = tested on: SK-MEL-5 melanoma
[28] = tested on: PC-3 prostate
[29] = tested on: KM20L2 colon
[30] = tested on: OVCAR-8 ovarian
[31] = tested on: DU-145 prostate
[32] = tested on: OVCAR-3 ovarian
[33] = tested on: NCI-H460 lung
[34] = tested on: NCI-H522 lung
[35] = tested on: UACC-257 melanoma
[36] = tested on: P388/ADR leukemia
[37] = tested on: OVCAR-4 ovarian
[38] = tested on: HS 578T breast
[39] = tested on: COLO 205 colon
[40] = tested on: MALME-3M melanoma
[41] = tested on: P388 leukemia
[42] = tested on: HCC-2998 colon
[43] = tested on: SNB-19 CNS
[44] = tested on: M19-MEL melanoma
[45] = tested on: MDA-MB-231 breast
[46] = tested on: SK-MEL-28 melanoma
[47] = tested on: DLD-1 colon
[48] = tested on: CCRF-CEM leukemia
[49] = tested on: U251 CNS
[50] = tested on: DMS 114 small cell lung
[51] = tested on: SN12C renal
[52] = tested on: SW-620 colon
[53] = tested on: MDA-N
[54] = tested on: RPMI-8226 leukemia

## C[C@@]1(CO)[C@H](O)CC[C@@]2(C)[C@H]1CC[C@H]1C[C@@H]3C[C@@]12CC[C@@]3(O)COC(=O)CN
[1]
  GI50: 34.8 µM
  TGI: > 77.6 µM and 109 µM
[2]
  TGI: > 500 µM and 131 µM
[3]
  GI50: 62.7 µM
  TGI: > 241 µM
[4]
  GI50: > 70.5 µM and 54.2 µM and 16.8 µM
  TGI: 347 µM and 176 µM
[5]
  GI50: 3.99 µM
  TGI: > 79.1 µM and 112 µM
[6]
  GI50: 116 µM
  TGI: > 81.1 µM and 193 µM
[7]
  GI50: 4.69 µM and 23.3 µM
  TGI: > 78.7 µM and > 500 µM and 147 µM
[8]
  GI50: 1.81 µM and 15.7 µM and 3.1 µM
  TGI: 76.1 µM and > 500 µM and 182 µM
[9]
  TGI: > 500 µM and 231 µM
[10]
  GI50: 31.2 µM and 137 µM and 33.9 µM
  TGI: > 93.2 µM and > 500 µM and 188 µM
[11]
  GI50: 12.9 µM
  TGI: 68.4 µM and > 5 µM and 231 µM
[12]
  GI50: 0.186 µM
  TGI: 40.7 µM and 16.5 µM
[13]
  GI50: 1.66 µM
  TGI: 46.5 µM and 47.4 µM
[14]
  GI50: 41.9 µM
  TGI: > 79.1 µM and 190 µM
[15]
  GI50: 1.12 µM
  TGI: 60.8 µM and 108 µM
[16]
  TGI: 99.8 µM and > 500 µM and 186 µM
[17]
  GI50: 325 µM
  TGI: 83.4 µM and > 500 µM and 137 µM
[18]
  GI50: 2.11 µM and 0.38 µM
[19]
  GI50: 65.6 µM
  TGI: > 500 µM and 242 µM
[20]
  TGI: 53.6 µM and > 500 µM and 163 µM
[21]
  TGI: 58.3 µM and > 500 µM and 258 µM
[22]
  GI50: 770 nM (2×) and 3.44 µM
  TGI: 24.4 µM and 142 µM
[23]
  GI50: 0.25 µM
  TGI: 144 µM
[24]
  GI50: > 500 µM
  TGI: > 89.6 µM and > 500 µM and 177 µM
[25]
  TGI: > 500 µM and 238 µM
[26]
  GI50: 9.27 µM
  TGI: > 80.6 µM and 201 µM
[27]
  GI50: 41.9 µM and 6.06 µM
  TGI: > 500 µM and 95.7 µM
[28]
  GI50: 3.29 µM
  TGI: 150 µM
[29]
  GI50: 61.2 µM and 28.7 µM and 129 µM
  TGI: > 500 µM
[30]
  GI50: 2.29 µM and 12.6 µM and 4.01 µM
[31]
  GI50: 2.02 µM
  TGI: > 59.8 µM and 75.5 µM
[32]
  GI50: > 500 µM and 105 µM
  TGI: > 500 µM and 230 µM
[33]
  GI50: 0.176 µM and 1.37 µM and 0.317 µM
[34]
  GI50: 14.6 µM and 106 µM and 33.1 µM
  TGI: > 82.2 µM and > 500 µM and 172 µM
[35]
  GI50: 133 µM and 99.4 µM
  TGI: > 72.2 µM and > 500 µM and 239 µM
[36]
  TGI: 126 µM
[37]
  GI50: > 500 µM and 111 µM
  TGI: > 87.1 µM and > 500 µM and 182 µM
[38]
  GI50: 110 µM
  TGI: > 97.2 µM and 214 µM
[39]
  GI50: 82.4 µM
  TGI: 39.7 µM and 193 µM
[40]
  TGI: > 500 µM and 189 µM
[41]
  TGI: 209 µM
[42]
  GI50: > 500 µM and 72.6 µM
[43]
  TGI: > 500 µM and 254 µM
[44]
  TGI: > 500 µM and 161 µM
[45]
  GI50: 45.4 µM
  TGI: > 89.6 µM and 172 µM
[46]
  GI50: 83.9 µM and 150 µM
  TGI: > 500 µM and 252 µM
[47]
  GI50: > 500 µM and 104 µM
  TGI: > 500 µM
[48]
  GI50: 6.56 µM and 0.777 µM
[49]
  GI50: 4.35 µM and 7.51 µM
  TGI: 66 µM and 50 µM and 178 µM
[50]
  TGI: > 500 µM and 170 µM
[51]
  TGI: 65.7 µM and > 500 µM and 183 µM
[52]
  TGI: 59.4 µM and > 500 µM and 220 µM
[53]
  TGI: > 86.9 µM and 180 µM
[54]
  GI50: 16.1 µM and 3.35 µM
  TGI: 78.2 µM and > 500 µM and 126 µM
